≈ marks a conversion by molar mass, not a printed value. Read-outs that look alike come from different tables or passages of the source.
Key:
male BDF1 mice = experiment: Toxicity study (LD50 study) in mice; type: in vivo; conditions: IP
Procedure: These effects diminished over a period of about 3-5 hours until the animal appeared normal and resumed activity.

rats = experiment: Acute toxic effects after intraperitoneal administration in rats; type: in vivo, Male Harlen-Sprague-Dawley rats; conditions: rat; 20 mg/kg intraperitoneal
Procedure: Male Harlen-Sprague-Dawley rats, 200-300 g were given 20 mg/kg of O-HMM by intraperitoneal injection (control rats received saline vehicle only) and their urine collected for two consecutive 24 hr. periods.

A-204 rhabdomysarcoma = experiment: Inhibition of colony formation by human tumor cell line A-204 (rhabdomysarcoma), long-term exposure; type: cell-based; conditions: 9 days
Procedure: (§1) Cytotoxic activity of O-HMM against in vitro human tumor cells was measured as inhibition of colony formation and the results expressed as a ratio of the number of colonies in test dishes to number of control dishes, times 100 (Table 4).
(§2) Inhibition of colony formation by human tumor
(§3) ^a Percent survival as measured by the number of colonies in test

A-498 renal carcinoma = experiment: Inhibition of colony formation by human tumor cell line A-498 (renal carcinoma), long-term exposure; type: cell-based; conditions: 9 days
Procedure: as §1, §2, §3

A-101D melanoma = experiment: Inhibition of colony formation by human tumor cell line A-101D (melanoma), long-term exposure; type: cell-based; conditions: 9 days
Procedure: as §1, §2, §3

A-549 lung carcinoma = experiment: Inhibition of colony formation by human tumor cell line A-549 (lung carcinoma), long-term exposure; type: cell-based; conditions: 9 days
Procedure: as §1, §2, §3

[1] = tested on: A-549 lung carcinoma, A-101D melanoma, A-498 renal carcinoma and A-204 rhabdomysarcoma; experiment: Comparison of O-HMM with HMM in the human tumor colony formation test systems; type: cell-based; conditions: vs HMM; all four cell lines
Procedure: as §1

[2] = Rearrangement of O-HMM to HDT (chemical stability); type: physicochemical; conditions: for degraded at 4 h / degraded at 24 h / degraded at 26 h / degraded at 20 h: read-out: HDT (formed by rearrangement, determined by NMR); for remaining at 4 h / remaining at 24 h / remaining at 26 h / remaining at 20 h: read-out: HMM--NO (remaining, determined by NMR); for degraded at 24 h / remaining at 24 h: h2o; for degraded at 20 h / remaining at 20 h: 135° C. sealed tube
Text: Solvent Temp. Time HMM--NO HDT
^a Yields determined by NMR
^b Sealed tube reaction. Solutions degassed with argon and then seale
^d 0.1 equiv. mchlorobenzoic acid
^e 0.1 equiv. pnitrobenzoic acid
^f 0.05 M HOAc/NaOAc pH 5

[3] = Solubility in lipid and aqueous media; type: physicochemical
[4] = h2o/h+ (0.05 m hoac/naoac), pH 5, H2O/H+ (0.05 M HOAc/NaOAc pH 5), 25° C.
[5] = h2o/h+ (0.05 m hoac/naoac), pH 5, H2O/H+ (0.05 M HOAc/NaOAc pH 5), 50° C.
[6] = hccl3/h+ (m-chlorobenzoic acid), HCCl3/H+ (0.1 equiv. m-chlorobenzoic acid), 25° C.
[7] = hccl3/h+ (m-chlorobenzoic acid), HCCl3/H+ (0.1 equiv. m-chlorobenzoic acid), 50° C.
[8] = hccl3/h+ (m-chlorobenzoic acid), HCCl3/H+ (0.1 equiv. m-chlorobenzoic acid)
[9] = hccl3/h+ (p-nitrobenzoic acid), HCCl3/H+ (0.1 equiv. p-nitrobenzoic acid), 50° C.

Which results are given for `CN(C)Oc1nc(N(C)C)nc(N(C)C)n1` [O-HMM, 2,4-bis(dimethylamino)-6-[(dimethylamino)oxy]-1,3,5-triazine]?
onset of changes in the mouse's behavior after injection (male BDF1 mice): < 1 min; recovery of the fourth mouse (male BDF1 mice; 1000 mg/kg): recovering completely; time of recovery (dose dependence) (male BDF1 mice; mouse): dose-dependent time of recovery; time until effects diminished and animal appeared normal (male BDF1 mice; mouse): 3 to 5 h; time to death (male BDF1 mice; mouse, 1000 mg/kg): ≤ 3 min; deaths (male BDF1 mice; mouse, 1000 mg/kg, 4 mice): 3 of the 4; long-term effects (weight loss, hair loss, death rate vs control animals) (male BDF1 mice; mouse, 60- and 120-day observation): no long-term effects; recovery of the remaining mice in the other groups (male BDF1 mice; mouse, 500, 250, 100, 50 and 25 mg/kg): recovered completely in a few hours; toxic phenomenon (flaccid paralysis) (male BDF1 mice; mouse, 1000-25 mg/kg): dose dependent toxic phenomenon showing a decreasing degree of a flaccid paralysis with decreasing dose; absorption (male BDF1 mice; mouse, inferred from rapid onset of toxic effect): very rapid absorption; acute toxic effects (rats): No acute toxic effects were observed; inhibition of colony formation (A-204 rhabdomysarcoma; 200 μg/ml): Complete inhibition; viability at 10 µg/mL (A-204 rhabdomysarcoma; Homo sapiens, A204, 216 h, 10 ug/ml, read-out: Percent survival (number of colonies in test dishes to colonies in control dishes times 100)): 99 ± 26%; viability at 20 µg/mL (A-204 rhabdomysarcoma; Homo sapiens, A204, 216 h, 20 ug/ml, read-out: Percent survival (number of colonies in test dishes to colonies in control dishes times 100)): 87 ± 13%; viability at 40 µg/mL (A-204 rhabdomysarcoma; Homo sapiens, A204, 216 h, 40 ug/ml, read-out: Percent survival (number of colonies in test dishes to colonies in control dishes times 100)): 76 ± 17%; viability at 60 µg/mL (A-204 rhabdomysarcoma; Homo sapiens, A204, 216 h, 60 ug/ml, read-out: Percent survival (number of colonies in test dishes to colonies in control dishes times 100)): 48 ± 21%; viability at 80 µg/mL (A-204 rhabdomysarcoma; Homo sapiens, A204, 216 h, 80 ug/ml, read-out: Percent survival (number of colonies in test dishes to colonies in control dishes times 100)): 20 ± 17%; viability at 100 µg/mL (A-204 rhabdomysarcoma; Homo sapiens, A204, 216 h, 100 ug/ml, read-out: Percent survival (number of colonies in test dishes to colonies in control dishes times 100)): 4 ± 4%; viability at 120 µg/mL (A-204 rhabdomysarcoma; Homo sapiens, A204, 216 h, 120 ug/ml, read-out: Percent survival (number of colonies in test dishes to colonies in control dishes times 100)): 1 ± 2%; viability at 200 µg/mL (A-204 rhabdomysarcoma; Homo sapiens, A204, 216 h, 200 ug/ml, read-out: Percent survival (number of colonies in test dishes to colonies in control dishes times 100)): 0%; inhibition of colony formation (A-498 renal carcinoma; 200 μg/ml): Complete inhibition; viability at 10 µg/mL (A-498 renal carcinoma; Homo sapiens, A498, 216 h, 10 ug/ml, read-out: Percent survival (number of colonies in test dishes to colonies in control dishes times 100)): 93 ± 3%; viability at 20 µg/mL (A-498 renal carcinoma; Homo sapiens, A498, 216 h, 20 ug/ml, read-out: Percent survival (number of colonies in test dishes to colonies in control dishes times 100)): 83 ± 7%; viability at 40 µg/mL (A-498 renal carcinoma; Homo sapiens, A498, 216 h, 40 ug/ml, read-out: Percent survival (number of colonies in test dishes to colonies in control dishes times 100)): 67 ± 14%; viability at 60 µg/mL (A-498 renal carcinoma; Homo sapiens, A498, 216 h, 60 ug/ml, read-out: Percent survival (number of colonies in test dishes to colonies in control dishes times 100)): 44 ± 23%; viability at 80 µg/mL (A-498 renal carcinoma; Homo sapiens, A498, 216 h, 80 ug/ml, read-out: Percent survival (number of colonies in test dishes to colonies in control dishes times 100)): 24 ± 18%; viability at 100 µg/mL (A-498 renal carcinoma; Homo sapiens, A498, 216 h, 100 ug/ml, read-out: Percent survival (number of colonies in test dishes to colonies in control dishes times 100)): 14 ± 9%; viability at 120 µg/mL (A-498 renal carcinoma; Homo sapiens, A498, 216 h, 120 ug/ml, read-out: Percent survival (number of colonies in test dishes to colonies in control dishes times 100)): 5 ± 6%; viability at 200 µg/mL (A-498 renal carcinoma; Homo sapiens, A498, 216 h, 200 ug/ml, read-out: Percent survival (number of colonies in test dishes to colonies in control dishes times 100)): 0%; inhibition of colony formation (A-101D melanoma; 200 μg/ml): Complete inhibition; viability at 10 µg/mL (A-101D melanoma; Homo sapiens, A101D, 216 h, 10 ug/ml, read-out: Percent survival (number of colonies in test dishes to colonies in control dishes times 100)): 95 ± 10%; viability at 20 µg/mL (A-101D melanoma; Homo sapiens, A101D, 216 h, 20 ug/ml, read-out: Percent survival (number of colonies in test dishes to colonies in control dishes times 100)): 82 ± 9%; viability at 40 µg/mL (A-101D melanoma; Homo sapiens, A101D, 216 h, 40 ug/ml, read-out: Percent survival (number of colonies in test dishes to colonies in control dishes times 100)): 50 ± 15%; viability at 60 µg/mL (A-101D melanoma; Homo sapiens, A101D, 216 h, 60 ug/ml, read-out: Percent survival (number of colonies in test dishes to colonies in control dishes times 100)): 17 ± 16%; viability at 80 µg/mL (A-101D melanoma; Homo sapiens, A101D, 216 h, 80 ug/ml, read-out: Percent survival (number of colonies in test dishes to colonies in control dishes times 100)): 1 ± 1%; viability at 100 µg/mL (A-101D melanoma; Homo sapiens, A101D, 216 h, 100 ug/ml, read-out: Percent survival (number of colonies in test dishes to colonies in control dishes times 100)): 0%; viability at 120 µg/mL (A-101D melanoma; Homo sapiens, A101D, 216 h, 120 ug/ml, read-out: Percent survival (number of colonies in test dishes to colonies in control dishes times 100)): 0%; viability at 200 µg/mL (A-101D melanoma; Homo sapiens, A101D, 216 h, 200 ug/ml, read-out: Percent survival (number of colonies in test dishes to colonies in control dishes times 100)): 0%; inhibition of colony formation (A-549 lung carcinoma; 200 μg/ml): Complete inhibition; viability at 10 µg/mL (A-549 lung carcinoma; Homo sapiens, A549, 216 h, 10 ug/ml, read-out: Percent survival (number of colonies in test dishes to colonies in control dishes times 100)): 91 ± 6%; viability at 20 µg/mL (A-549 lung carcinoma; Homo sapiens, A549, 216 h, 20 ug/ml, read-out: Percent survival (number of colonies in test dishes to colonies in control dishes times 100)): 94 ± 4%; viability at 40 µg/mL (A-549 lung carcinoma; Homo sapiens, A549, 216 h, 40 ug/ml, read-out: Percent survival (number of colonies in test dishes to colonies in control dishes times 100)): 69 ± 11%; viability at 60 µg/mL (A-549 lung carcinoma; Homo sapiens, A549, 216 h, 60 ug/ml, read-out: Percent survival (number of colonies in test dishes to colonies in control dishes times 100)): 9 ± 14%; viability at 80 µg/mL (A-549 lung carcinoma; Homo sapiens, A549, 216 h, 80 ug/ml, read-out: Percent survival (number of colonies in test dishes to colonies in control dishes times 100)): 0%; viability at 100 µg/mL (A-549 lung carcinoma; Homo sapiens, A549, 216 h, 100 ug/ml, read-out: Percent survival (number of colonies in test dishes to colonies in control dishes times 100)): 0%; viability at 120 µg/mL (A-549 lung carcinoma; Homo sapiens, A549, 216 h, 120 ug/ml, read-out: Percent survival (number of colonies in test dishes to colonies in control dishes times 100)): 0%; viability at 200 µg/mL (A-549 lung carcinoma; Homo sapiens, A549, 216 h, 200 ug/ml, read-out: Percent survival (number of colonies in test dishes to colonies in control dishes times 100)): 0%; activity compared with HMM in the human tumor colony formation test systems [1]: consistently greater activity than HMM; degraded at 4 h ([2]; h2o/h+ (0.01 m hcl), 25° C.): 100%; remaining at 4 h ([2]; h2o/h+ (0.01 m hcl), 25° C.): 0%; degraded at 4 h [2, 4]: 79%; remaining at 4 h [2, 4]: 21%; degraded at 4 h [2, 5]: 100%; remaining at 4 h [2, 5]: 0%; degraded at 24 h ([2]; 25° C.): 0%; remaining at 24 h ([2]; 25° C.): 100%; degraded at 24 h ([2]; 50° C.): 9%; remaining at 24 h ([2]; 50° C.): 91%; degraded at 26 h ([2]; hccl3, HCCl3, 25° C.): 3%; remaining at 26 h ([2]; hccl3, HCCl3, 25° C.): 97%; degraded at 26 h ([2]; hccl3, HCCl3, 50° C.): 37%; remaining at 26 h ([2]; hccl3, HCCl3, 50° C.): 63%; degraded at 20 h ([2]; hccl3, HCCl3): 100%; remaining at 20 h ([2]; hccl3, HCCl3): 0%; degraded at 26 h [2, 6]: 66%; remaining at 26 h [2, 6]: 34%; degraded at 26 h [2, 7]: 97%; remaining at 26 h [2, 7]: 3%; degraded at 20 h [2, 8]: 100%; remaining at 20 h [2, 8]: 0%; degraded at 26 h [2, 9]: 100%; remaining at 26 h [2, 9]: 0%; degraded at 20 h ([2]; pentane): 100%; remaining at 20 h ([2]; pentane): 0%; solubility ([3]; pentane, organic solvent or mixture, read-out: solubility in lipid medium (pentane)): 29 mg/mL (≈ 128 mM); solubility ([3]; water, read-out: solubility in aqueous medium (water)): 19 mg/mL (≈ 84 mM)
